Each structure is given as a SMILES string. The source made the active and inactive calls. No cut-off for these calls is given here.

For one assay, the system named is Lepidium sativum. Kind of assay: Phytohormonal activity against Lepidium sativum assessed as inhibition of seed germination at 100 to 1000 uM after 2 days relative to control. The class given is functional, organism-based.
The test system of a further assay is Oryza sativa. Put plainly: Phytohormonal activity against Oryza sativa (rice) seedlings assessed as growth inhibition of second leaf sheath at 1 to 300 uM after 5 days relative to control. Format: functional, organism-based.

Turning to `CC/C=C\C[C@@H]1C(=O)CC[C@@H]1CC(=O)OC`, the inhibition result in the assay on Lepidium sativum was “Active”. For the same molecule, the “growth inhibition (GI)” value in the assay on Oryza sativa is “Active”.
As to `CC/C=C\C[C@H]1C(=O)CC[C@@H]1CC(=O)O`, in the assay on Oryza sativa, the “growth inhibition (GI)” value is “Active”.
For `CC/C=C\C[C@@H]1[C@@H](CC(=O)OC)CC[C@H]1O`, the inhibition entry in the assay on Lepidium sativum is “inactive”. The “growth inhibition (GI)” value with Oryza sativa was “inactive”.
`CC/C=C\C[C@H]1[C@@H](CC(=O)O)CC[C@@H]1O`: in the assay on Oryza sativa, the “growth inhibition (GI)” value is “inactive”.
Regarding `CC/C=C\C[C@H]1C(=O)CC[C@@H]1CC(=O)OC` (racemic), the inhibition result in the assay on Lepidium sativum was “Active”. Further, the “growth inhibition (GI)” value in the assay with Oryza sativa was “Active”.
In the case of `CC/C=C\C[C@@H]1[C@@H](CC(=O)OC)CC[C@@H]1O`, in the assay with Lepidium sativum, the inhibition entry was “inactive”. For the same molecule, in the assay on Oryza sativa, the “growth inhibition (GI)” value is “inactive”.
Consider `CC/C=C\C[C@H]1[C@@H](CC(=O)OC)CC[C@H]1O`, for which the inhibition result in the assay on Lepidium sativum was “Active”. The “growth inhibition (GI)” value in the assay with Oryza sativa was “Active”.
`CC/C=C\C[C@H]1[C@@H](CC(=O)OC)CC[C@@H]1O`: the inhibition result in the assay on Lepidium sativum is “Active”. Besides, the “growth inhibition (GI)” value in the assay on Oryza sativa is “Active”.
